Source: patent publication US20150140002A1, “USE OF A PCSK9 INHIBITOR TO TREAT […]” (Sanofi, priority 2013, published 2015)

Test system: patients with primary hypercholesterolemia (heFH and non-FH) who are intolerant to statins
Conditions: in vivo

CC(C)c1c(C(=O)Nc2ccccc2)c(-c2ccccc2)c(-c2ccc(F)cc2)n1CC[C@@H](O)C[C@@H](O)CC(=O)O [atorvastatin]
Cardiac disorders (SOC) (human): 2 (3.2%) patients (%) | Ear and labyrinth disorders (SOC) (human): 1 (1.6%) patients (%) | General allergic TEAEs (MedDRA SMQ Hypersensitivity) (human): 4 (6.3%) patients (%) | Investigations (SOC) (human): 3 (4.8%) patients (%) | Myalgia (human): 27% | Psychiatric disorders (SOC) (human): 2 (3.2%) patients (%) | Skeletal muscle-related TEAEs (CMQ preferred term) (human): 25 (39.7%) patients (%) | TEAEs (human): 54 (85.7%) patients (%) | Treatment-emergent SAEs (human): 7 (11.1%) patients (%) | Treatment-emergent injection site reactions (ISRs) (human): 1 (1.6%) patients (%) | Treatment-emergent neurologic AEs (human): 8 (12.7%) patients (%) | Treatment-emergent skeletal muscle-related events resulting in early treatment discontinuation (human): 13 (20.6%) patients (%) | back pain (human): 7.9% | early termination due to musculoskeletal and connective tissues disorders SOC events (human): 14 [22.2%] patients [%] | fatigue (human): 7.9% | headache (human): 6.3% | insomnia (human): 1 (1.6%) reports (%) | muscle spasms (human): 11.1% | muscular weakness (human): 6.3% | palpitations (human): 0 reports (%) | paraesthesia (human): 6.3% | patients who prematurely discontinued study treatment due to a TEAE (human): 16 (25.4%) patients (%) | patients who prematurely terminated study treatment due to adverse events (human): 16 (25.4%) patients (%) | rate of AEs (human): 86% | vertigo (human): 1 (1.6%) reports (%) | Treatment-emergent neurocognitive disorders: zero
